Laboratory results published in patent US12098148B2, “Therapeutic compounds” (C4X Discovery Limited, priority 2018, dated 2024).

Tests used:
[1] = molecular target: human KEAP1 (N-term, residues 321-609) (Homo sapiens, UniProt Q14145); experiment: biochemical;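 also: fluorescence polarization competition assay of Kelch domain binding to NRF2, 12-point 1:3 dilution series from 10 µM, read after 1 h at room temperature, floor 10 nM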
[2] = tested on: NQO1 mRNA in BEAS-2B cells; experiment: Beas2B NQO1 mRNA cell based assay; set-up: species or system human; settings: Homo sapiens, BEAS-2B, 24 h, 24 h compound treatment, increase in NQO1 mRNA vs vehicle (0.1% DMSO), read-out: EC50
Outline: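 BEAS-2B human bronchial epithelial cells exposed to compound for 24 h at 37 °C, 5% CO2. NQO1 mRNA measured by one-step TaqMan RT-qPCR on unpurified lysates, normalized to β-actin; relative expression by ΔΔCT method.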

Sequence of human KEAP1 (N-term, residues 321-609) (Q14145 321-609): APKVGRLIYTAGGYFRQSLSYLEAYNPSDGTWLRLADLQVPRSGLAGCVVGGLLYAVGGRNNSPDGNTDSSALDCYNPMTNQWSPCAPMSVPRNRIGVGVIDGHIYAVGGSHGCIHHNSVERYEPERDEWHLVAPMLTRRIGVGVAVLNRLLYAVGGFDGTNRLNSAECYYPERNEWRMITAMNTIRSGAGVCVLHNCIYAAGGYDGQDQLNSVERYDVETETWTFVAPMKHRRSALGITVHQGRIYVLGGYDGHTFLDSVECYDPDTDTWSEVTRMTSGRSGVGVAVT

Compound | IC50 [1] [nM] | EC50 [2] [nM]
Cn1nnc(COc2ccc(Cl)c3c2[C@@H](CN2CC4(CC4)CC2=O)N(C(=O)[C@@H]2CCCC[C@]2(C)C(=O)O)CC3)c1C(F)F [Example 123, (1S,2R)-2-((S)-5-chloro-8-((5-(difluoromethyl)-1-methyl-1H-1,2,3-triazol-4-yl)methoxy)-1-((6-oxo-5-azaspiro[2.4]heptan-5-yl)methyl)-1,2,3,4-tetrahydroisoquinoline-2-carbonyl)-1-methylcyclohexane-1-carboxylic acid] | 5.8 | 0.26
Cc1onc(COc2ccc(Cl)c3c2[C@@H](CN2CCCC2=O)N(C(=O)[C@@H]2CCCC[C@]2(C)C(=O)O)CC3)c1C [Example 124, (1S,2R)-2-((S)-5-chloro-8-((4,5-dimethylisoxazol-3-yl)methoxy)-1-((2-oxopyrrolidin-1-yl)methyl)-1,2,3,4-tetrahydroisoquinoline-2-carbonyl)-1-methylcyclohexane-1-carboxylic acid] | 8.4 | 6.8
Cc1onc(COc2ccc(Cl)c3c2[C@@H](CN2CCCC2=O)N(C(=O)[C@@H]2CCCC[C@]2(C)C(=O)O)CC3)c1Cl [Example 125, (1S,2R)-2-((S)-5-chloro-8-((4-chloro-5-methylisoxazol-3-yl)methoxy)-1-((2-oxopyrrolidin-1-yl)methyl)-1,2,3,4-tetrahydroisoquinoline-2-carbonyl)-1-methylcyclohexane-1-carboxylic acid] | 9.2 | 30
Cc1cnoc1COc1ccc(Cl)c2c1[C@@H](CN1CCCC1=O)N(C(=O)[C@@H]1CCCC[C@]1(C)C(=O)O)CC2 [Example 126, (1S,2R)-2-((S)-5-chloro-8-((4-methylisoxazol-5-yl)methoxy)-1-((2-oxopyrrolidin-1-yl)methyl)-1,2,3,4-tetrahydroisoquinoline-2-carbonyl)-1-methylcyclohexane-1-carboxylic acid] | 5.6 | 32
COCc1c(COc2ccc(Cl)c3c2[C@@H](CN2CCCC2=O)N(C(=O)[C@@H]2CCCC[C@]2(C)C(=O)O)CC3)nnn1C [Example 127, (1S,2R)-2-((S)-5-chloro-8-((5-(methoxymethyl)-1-methyl-1H-1,2,3-triazol-4-yl)methoxy)-1-((2-oxopyrrolidin-1-yl)methyl)-1,2,3,4-tetrahydroisoquinoline-2-carbonyl)-1-methylcyclohexane-1-carboxylic acid] | 7 | 2.6
COCCc1c(COc2ccc(Cl)c3c2[C@@H](CN2CCCC2=O)N(C(=O)[C@@H]2CCCC[C@]2(C)C(=O)O)CC3)nnn1C [Example 128, (1S,2R)-2-((i)-5-chloro-8-((5-(2-methoxyethyl)-1-methyl-1H-1,2,3-triazol-4-yl)methoxy)-1-((2-oxopyrrolidin-1-yl)methyl)-1,2,3,4-tetrahydroisoquinoline-2-carbonyl)-1-methylcyclohexane-1-carboxylic acid] | 8.7 | 1.9
Cn1nnc(COc2ccc(Cl)c3c2[C@@H](CN2CCCC2=O)N(C(=O)[C@@H]2CCCC[C@]2(C)C(=O)O)CC3)c1C1CC1 [Example 129, (1S,2R)-2-((S)-5-chloro-8-((5-cyclopropyl-1-methyl-1H-1,2,3-triazol-4-yl)methoxy)-1-((2-oxopyrrolidin-1-yl)methyl)-1,2,3,4-tetrahydroisoquinoline-2-carbonyl)-1-methylcyclohexane-1-carboxylic acid] | 5.5 | 0.95
C[C@H]1CCN(C[C@@H]2c3c(OCc4nnn(C)c4C(F)(F)F)ccc(Cl)c3CCN2C(=O)[C@@H]2CCCC[C@]2(C)C(=O)O)C1=O [Example 130, (1S,2R)-2-((S)-5-chloro-1-(((S)-3-methyl-2-oxopyrrolidin-1-yl)methyl)-8-((1-methyl-5-(trifluoromethyl)-1H-1,2,3-triazol-4-yl)methoxy)-1,2,3,4-tetrahydroisoquinoline-2-carbonyl)-1-methylcyclohexane-1-carboxylic acid] | 6.7 | 21
C[C@@H]1CCN(C[C@@H]2c3c(OCc4nnn(C)c4C(F)(F)F)ccc(Cl)c3CCN2C(=O)[C@@H]2CCCC[C@]2(C)C(=O)O)C1=O [Example 131, (1S,2R)-2-((S)-5-chloro-1-(((R)-3-methyl-2-oxopyrrolidin-1-yl)methyl)-8-((1-methyl-5-(trifluoromethyl)-1H-1,2,3-triazol-4-yl)methoxy)-1,2,3,4-tetrahydroisoquinoline-2-carbonyl)-1-methylcyclohexane-1-carboxylic acid] | 12 | 200
C[C@@H]1CC(=O)N(C[C@@H]2c3c(OCc4nnn(C)c4C(F)(F)F)ccc(Cl)c3CCN2C(=O)[C@@H]2CCCC[C@]2(C)C(=O)O)C1 [Example 132, (1S,2R)-2-((S)-5-chloro-1-(((R)-4-methyl-2-oxopyrrolidin-1-yl)methyl)-8-((1-methyl-5-(trifluoromethyl)-1H-1,2,3-triazol-4-yl)methoxy)-1,2,3,4-tetrahydroisoquinoline-2-carbonyl)-1-methylcyclohexane-1-carboxylic acid] | 5.1 | 5.7
C[C@]1(C(=O)O)CCCC[C@H]1C(=O)N1CCc2c(Cl)ccc(OCc3nnn(C4CC4)c3C(F)F)c2[C@H]1CN1CCCC1=O [Example 134, (1S,2R)-2-((S)-5-chloro-8-((1-cyclopropyl-5-(difluoromethyl)-1H-1,2,3-triazol-4-yl)methoxy)-1-((2-oxopyrrolidin-1-yl)methyl)-1,2,3,4-tetrahydroisoquinoline-2-carbonyl)-1-methylcyclohexane-1-carboxylic acid] | 8.2 | 2.2
C[C@]1(C(=O)O)CCCC[C@H]1C(=O)N1CCc2c(Cl)ccc(OCc3cncnc3C(F)F)c2[C@H]1CN1CC2(CC2)CC1=O [Example 135, (1S,2R)-2-((S)-5-chloro-8-((4-(difluoromethyl)pyrimidin-5-yl)methoxy)-1-((6-oxo-5-azaspiro[2.4]heptan-5-yl)methyl)-1,2,3,4-tetrahydroisoquinoline-2-carbonyl)-1-methylcyclohexane-1-carboxylic acid] | 5.3 | 0.91
CC1(C)CC(COc2ccc(Cl)c3c2[C@@H](CN2CC4(CC4)CC2=O)N(C(=O)[C@@H]2CCCC[C@]2(C)C(=O)O)CC3)=NO1 [Example 136, (1S,2R)-2-((S)-5-chloro-8-((5,5-dimethyl-4,5-dihydroisoxazol-3-yl)methoxy)-1-((6-oxo-5-azaspiro[2.4]heptan-5-yl)methyl)-1,2,3,4-tetrahydroisoquinoline-2-carbonyl)-1-methylcyclohexane-1-carboxylic acid] | 22 | 1700
Cc1conc1COc1ccc(Cl)c2c1[C@@H](CN1CCCC1=O)N(C(=O)[C@@H]1CCCC[C@]1(C)C(=O)O)CC2 [Example 137, (1S,2R)-2-((S)-5-chloro-8-((4-methylisoxazol-3-yl)methoxy)-1-((2-oxopyrrolidin-1-yl)methyl)-1,2,3,4-tetrahydroisoquinoline-2-carbonyl)-1-methylcyclohexane-1-carboxylic acid] | 6.3 | 6.7
C[C@]1(C(=O)O)CCCC[C@H]1C(=O)N1CCc2c(Cl)ccc(OCc3noc4c3CCCC4)c2[C@H]1CN1CCCC1=O [Example 138, (1S,2R)-2-((S)-5-chloro-1-((2-oxopyrrolidin-1-yl)methyl)-8-((4,5,6,7-tetrahydrobenzo[d]isoxazol-3-yl)methoxy)-1,2,3,4-tetrahydroisoquinoline-2-carbonyl)-1-methylcyclohexane-1-carboxylic acid] | 7.9 | 0.8
Cn1nnc(COc2ccc(Cl)c3c2[C@@H](CN2CC4(CC4)CC2=O)N(C(=O)[C@@H]2OCCC[C@@H]2C(=O)O)CC3)c1C(F)F [Example 140, (2R,3S)-2-((S)-5-chloro-8-((5-(difluoromethyl)-1-methyl-1H-1,2,3-triazol-4-yl)methoxy)-1-((6-oxo-5-azaspiro[2.4]heptan-5-yl)methyl)-1,2,3,4-tetrahydroisoquinoline-2-carbonyl)tetrahydro-2H-pyran-3-carboxylic acid] | 4.5 | 150
Cn1nnc(COc2ccc(Cl)c3c2[C@@H](CN2CCCC2=O)N(C(=O)[C@@H]2CC4CCC2(C(=O)O)CC4)CC3)c1C(F)F [Example 141, (R)-2-((S)-5-chloro-8-((5-(difluoromethyl)-1-methyl-1H-1,2,3-triazol-4-yl)methoxy)-1-((2-oxopyrrolidin-1-yl)methyl)-1,2,3,4-tetrahydroisoquinoline-2-carbonyl)bicyclo[2.2.2]octane-1-carboxylic acid] | 7 | 35
[2H]C1([2H])CC[C@](C)(C(=O)O)[C@H](C(=O)N2CCc3c(Cl)ccc(OCc4nnn(C)c4C(F)F)c3[C@H]2CN2CC3(CC3)CC2=O)C1 [Example 142, (1S,2R)-2-((S)-5-chloro-8-((5-(difluoromethyl)-1-methyl-1H-1,2,3-triazol-4-yl)methoxy)-1-((6-oxo-5-azaspiro[2.4]heptan-5-yl)methyl)-1,2,3,4-tetrahydroisoquinoline-2-carbonyl)-1-methylcyclohexane-1-carboxylic-4,4-d2 acid] | 5 | 0.21
Cc1c(COc2c(F)cc(Cl)c3c2[C@@H](CN2CC4(CC4)CC2=O)N(C(=O)[C@@H]2CCCC[C@]2(C)C(=O)O)CC3)nnn1C [Example 143, (1S,2R)-2-((S)-5-chloro-8-((1,5-dimethyl-1H-1,2,3-triazol-4-yl)methoxy)-7-fluoro-1-((6-oxo-5-azaspiro[2.4]heptan-5-yl)methyl)-1,2,3,4-tetrahydroisoquinoline-2-carbonyl)-1-methylcyclohexane-1-carboxylic acid] | 5.2 | 0.05
